We go through 1 substance from US20070122830A1, “Prohibitin-directed diagnostics and therapeutics for cancer and chemotherapeutic drug resistance” (Aurelium BioPharma Inc., priority 2005, published 2007).

Data set [1] relates to prohibitin. Description: Prohibitin silencing by siRNA in MCF-7 cells, anti-prohibitin immunoblot. The format is cell-based, human. Particulars: MCF-7 cell line; FIG. 6. The source says: To establish the importance of prohibitin to the expression of the drug-resistant phenotype in MDA cell lines, prohibitin expression was silenced using RNAi. Briefly, the following siRNA duplexes targeting the human prohibitin mRNA were designed and purchased either from Ambion (Austin, Tex.) or Invitrogen (Carlsbad, Calif.). The siRNA duplex sequences corresponding to nucleotides 425 through 443 (GenBank SEQ ID NUMBER: U49725.1) targeting the start of the prohibitin mRNA transcript were:
For a typical siRNA transfection, 1 nmole of the annealed siRNA duplex was mixed with 1.4 ml of Opti-MEM reagent (Invitrogen). In another tube, […] of Oligofectamine reagent (Invitrogen, Carlsbad, Calif.) was mixed with […] of Opti-MEM. The two solutions were combined and mixed gently by inversion and incubated for 20 min. at RT. The resulting solution was added to the cultured cells drop by drop in a 10 cm dish (cells are approximately 40-50% confluent). The next day the transfected cells were trypsinized and seeded in 6 or 96-well plates and further incubated for the indicated amount of time (assay dependent) before further analysis.
Targeted silencing of prohibitin was performed as described in Example 2 above.

Data set [2] concerns prohibitin. Description: Prohibitin silencing by siRNA in MDA cells, anti-prohibitin immunoblot. The format is cell-based, human. Conditions: for decrease in prohibitin expression: MDA cell lines. How it is done:
Cell extracts from drug-resistant and drug-sensitive cell lines were prepared to determine the expression levels of potential therapeutic targets in drug-resistant cells. Briefly, cultured cells were rinsed 2 times with 15 ml of 1× phosphate buffered saline (“PBS”), and harvested by trypsinization. Cells were collected in a 15 ml tube by centrifugation at 1000 rpm for 5 min. The supernatant was discarded and cells were washed 3 times with 1×PBS. The cell pellet was transferred to an Eppendorf tube and […] of 1×PBS were added. Cells were centrifuged 5 min. at 3000 rpm in an Eppendorf Microfuge. The supernatant was removed and cells were then lysed in […] of lysis buffer (50 mM Tris, pH 7.5, 150 mM NaCl, 1% NP-40, 0.5% sodium deoxycholate), containing protease inhibitors ([…], […] benzamidine, 0.2 mM PMSF) and incubated 5 min. on ice. The cell lysates were then centrifuged at 14,000×g for 10 min. at 4° C. The protein concentration of the supernatants was determined by the DC Protein assay (BioRad, Hercules, Calif.). Samples were subsequently stored at −80° C. until ready for analysis.
Total cell lysates were thawed and then incubated with 1 U/ml DNAse I (New England BioLabs, Inc., Beverly, Mass.), 5 mM MgCl2 (final concentration) for 2 hours on ice. Their protein concentration was determined using the RC DC protein assay kit from BIORAD according to manufacturer's instructions (BioRad Laboratories, Hercules, Calif.) (see also Lowry et al., (1951) J. Biol. Chem. 193: 265-275). Equivalent amounts of proteins ([…]) from total cell extracts from sensitive (MCF7, MDA-MB-231) and chemotherapeutic drug-resistant cells (MCF7/AR and MDA-MB-231/AR) were analyzed by polyacrylamide gel electrophoresis followed by blotting to a nitrocellulose membrane. The membrane was subsequently contacted with an anti-prohibitin antibody obtained from Abcam, Inc., Cambridge, Mass. The immunoblots were incubated with an anti-IgG secondary antibody and visualized using horseradish peroxidase using the manufacturer's protocol (Bio-Rad Laboratories, Hercules, Calif.).
To establish the importance of prohibitin to the expression of the drug-resistant phenotype in MDA cell lines, prohibitin expression was silenced using RNAi. Briefly, the following siRNA duplexes targeting the human prohibitin mRNA were designed and purchased either from Ambion (Austin, Tex.) or Invitrogen (Carlsbad, Calif.). […]
The siRNA duplex was predesigned, synthesized with 3′TT overhangs, purified and annealed by Ambion (Austin, Tex.). […] Transfection efficiencies were typically evaluated 24-48 hrs post transfection using a fluorescence microscope. […]
For orientation: A western blot detects proteins with antibodies after separation by electrophoresis.

For “prohibitin siRNA: siRNA duplex to human prohibitin mRNA nt 425-443; sense 5′-GGAAGUGGUCUGUCUGUUAtt-3′, antisense 5′-UAACAGACAGACCACUUCCtt-3′ (sense GGAAGUGGUCUGUCUGUUATT; antisense UAACAGACAGACCACUUCCTT; chemistry not given here)”, the “decrease in prohibitin expression as compared to mock siRNA” value in the data set with prohibitin [1] was 37%. Further, the “decrease in prohibitin expression” value in the data set with prohibitin [2] (four days post-treatment, FIG. 2) stood at 43%; in the data set with prohibitin [2] (fourth day after treatment, FIG. 3), 58%; in the data set on prohibitin [2] (two days post-treatment, FIG. 2), 79%. Also, in the data set with prohibitin [2] (MDA cells, FIG. 5), the “additional decrease in prohibitin expression compared to mock silencing” value was determined as 60%.
